Results published in ChEMBL document CHEMBL1629708, “Discovery of dihydrothieno- and dihydrofuropyrimidines as potent pan Akt inhibitors” (Bioorg Med Chem Lett, 2010).

Biological target: T1, RAC-alpha serine/threonine-protein kinase (Homo sapiens, UniProt P31749)
Experiment: Inhibition of Akt1

T1 sequence (P31749 whole entry): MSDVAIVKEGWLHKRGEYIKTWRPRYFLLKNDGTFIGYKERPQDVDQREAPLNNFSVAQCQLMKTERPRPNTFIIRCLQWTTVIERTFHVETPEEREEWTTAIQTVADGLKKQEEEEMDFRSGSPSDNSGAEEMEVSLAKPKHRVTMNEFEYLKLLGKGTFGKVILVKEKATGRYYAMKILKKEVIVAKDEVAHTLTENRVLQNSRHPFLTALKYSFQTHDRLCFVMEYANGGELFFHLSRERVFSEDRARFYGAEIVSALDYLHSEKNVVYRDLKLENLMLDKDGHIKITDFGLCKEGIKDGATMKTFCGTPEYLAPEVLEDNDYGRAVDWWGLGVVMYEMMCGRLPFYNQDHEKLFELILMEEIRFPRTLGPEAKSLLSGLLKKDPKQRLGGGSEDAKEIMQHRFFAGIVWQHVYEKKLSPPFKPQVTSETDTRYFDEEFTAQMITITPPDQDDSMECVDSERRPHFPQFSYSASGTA

IC50 [nM] | SMILES
16 | Cc1ccc(CC(CNC(C)C)C(=O)N2CCN(c3ncnc4c3[C@H](C)OC4)CC2)cc1 (some centres not stated)
3 | CC(C)NC[C@H](Cc1ccc(Cl)cc1)C(=O)N1CCN(c2ncnc3c2[C@H](C)OC3)CC1
6 | CC(C)NCC(Cc1ccc(Cl)c(F)c1)C(=O)N1CCN(c2ncnc3c2[C@H](C)OC3)CC1 (some centres not stated)
7 | CCC1SCc2ncnc(N3CCN(C(=O)[C@H](N)Cc4ccc(Cl)cc4)CC3)c21 (some centres not stated)
260 | C[C@H]1SCc2ncnc(N3CCN(C(=O)[C@H](N)Cc4ccc(Cl)cc4)CC3)c21
4 | CC1SCc2ncnc(N3CCN(C(=O)[C@H](N)Cc4ccc(Cl)cc4)CC3)c21 (some centres not stated)
7 | C[C@@H]1OCc2ncnc(N3CCN(C(=O)[C@H](N)Cc4ccc(Cl)cc4)CC3)c21
1 | C[C@@H]1SCc2ncnc(N3CCN(C(=O)[C@H](N)Cc4ccc(Cl)cc4)CC3)c21
2 | CC(C)NCC(Cc1ccc(Cl)c(F)c1)C(=O)N1CCN(c2ncnc3c2[C@H](C)SC3)CC1 (some centres not stated)
22 | N[C@H](Cc1ccc(Cl)cc1)C(=O)N1CCN(c2ncnc3c2CSC3)CC1
3 | CC(C)NCC(Cc1ccc(Cl)cc1)C(=O)N1CCN(c2ncnc3c2[C@H](C)SC3)CC1 (some centres not stated)
3 | C[C@@H]1SCc2ncnc(N3CCN(C(=O)C(Cc4ccc(Cl)c(F)c4)CC4(N)CC4)CC3)c21 (some centres not stated)
52 | N[C@H](Cc1ccc(Cl)cc1)C(=O)N1CCN(c2ncnc3c2CS(=O)(=O)C3)CC1
127 | CC(C)NC[C@@H](Cc1ccc(Cl)cc1)C(=O)N1CCN(c2ncnc3c2[C@H](C)SC3)CC1

Tested on: not listed separately
Experiment: Inhibition of PKA

IC50 [nM] | SMILES
315 | Cc1ccc(CC(CNC(C)C)C(=O)N2CCN(c3ncnc4c3[C@H](C)OC4)CC2)cc1 (some centres not stated)
52 | CC(C)NC[C@H](Cc1ccc(Cl)cc1)C(=O)N1CCN(c2ncnc3c2[C@H](C)OC3)CC1
88 | CC(C)NCC(Cc1ccc(Cl)c(F)c1)C(=O)N1CCN(c2ncnc3c2[C@H](C)OC3)CC1 (some centres not stated)
52 | CCC1SCc2ncnc(N3CCN(C(=O)[C@H](N)Cc4ccc(Cl)cc4)CC3)c21 (some centres not stated)
1710 | C[C@H]1SCc2ncnc(N3CCN(C(=O)[C@H](N)Cc4ccc(Cl)cc4)CC3)c21
31 | CC1SCc2ncnc(N3CCN(C(=O)[C@H](N)Cc4ccc(Cl)cc4)CC3)c21 (some centres not stated)
61 | C[C@@H]1OCc2ncnc(N3CCN(C(=O)[C@H](N)Cc4ccc(Cl)cc4)CC3)c21
13 | C[C@@H]1SCc2ncnc(N3CCN(C(=O)[C@H](N)Cc4ccc(Cl)cc4)CC3)c21
30 | CC(C)NCC(Cc1ccc(Cl)c(F)c1)C(=O)N1CCN(c2ncnc3c2[C@H](C)SC3)CC1 (some centres not stated)
223 | N[C@H](Cc1ccc(Cl)cc1)C(=O)N1CCN(c2ncnc3c2CSC3)CC1
80 | CC(C)NCC(Cc1ccc(Cl)cc1)C(=O)N1CCN(c2ncnc3c2[C@H](C)SC3)CC1 (some centres not stated)
30 | C[C@@H]1SCc2ncnc(N3CCN(C(=O)C(Cc4ccc(Cl)c(F)c4)CC4(N)CC4)CC3)c21 (some centres not stated)
1300 | N[C@H](Cc1ccc(Cl)cc1)C(=O)N1CCN(c2ncnc3c2CS(=O)(=O)C3)CC1
5620 | CC(C)NC[C@@H](Cc1ccc(Cl)cc1)C(=O)N1CCN(c2ncnc3c2[C@H](C)SC3)CC1

Biological target: T1, RAC-alpha serine/threonine-protein kinase
Experiment: Inhibition of Akt in human LNCaP cell assessed as inhibition of PRAS40 phosphorylation
Format: cell-based

IC50 [nM] | SMILES
995 | Cc1ccc(CC(CNC(C)C)C(=O)N2CCN(c3ncnc4c3[C@H](C)OC4)CC2)cc1 (some centres not stated)
125 | CC(C)NC[C@H](Cc1ccc(Cl)cc1)C(=O)N1CCN(c2ncnc3c2[C@H](C)OC3)CC1
315 | CC(C)NCC(Cc1ccc(Cl)c(F)c1)C(=O)N1CCN(c2ncnc3c2[C@H](C)OC3)CC1 (some centres not stated)
1200 | CCC1SCc2ncnc(N3CCN(C(=O)[C@H](N)Cc4ccc(Cl)cc4)CC3)c21 (some centres not stated)
18500 | C[C@H]1SCc2ncnc(N3CCN(C(=O)[C@H](N)Cc4ccc(Cl)cc4)CC3)c21
310 | CC1SCc2ncnc(N3CCN(C(=O)[C@H](N)Cc4ccc(Cl)cc4)CC3)c21 (some centres not stated)
615 | C[C@@H]1OCc2ncnc(N3CCN(C(=O)[C@H](N)Cc4ccc(Cl)cc4)CC3)c21
184 | C[C@@H]1SCc2ncnc(N3CCN(C(=O)[C@H](N)Cc4ccc(Cl)cc4)CC3)c21
92 | CC(C)NCC(Cc1ccc(Cl)c(F)c1)C(=O)N1CCN(c2ncnc3c2[C@H](C)SC3)CC1 (some centres not stated)
3850 | N[C@H](Cc1ccc(Cl)cc1)C(=O)N1CCN(c2ncnc3c2CSC3)CC1
159 | CC(C)NCC(Cc1ccc(Cl)cc1)C(=O)N1CCN(c2ncnc3c2[C@H](C)SC3)CC1 (some centres not stated)
250 | C[C@@H]1SCc2ncnc(N3CCN(C(=O)C(Cc4ccc(Cl)c(F)c4)CC4(N)CC4)CC3)c21 (some centres not stated)
21000 | N[C@H](Cc1ccc(Cl)cc1)C(=O)N1CCN(c2ncnc3c2CS(=O)(=O)C3)CC1

Biological target: Ribosomal protein S6 kinase beta-1 (Homo sapiens) (UniProt P23443)
Experiment: Inhibition of p70S6K at 1 uM

Sequence of Ribosomal protein S6 kinase beta-1 (Homo sapiens) (P23443 whole entry, looked up): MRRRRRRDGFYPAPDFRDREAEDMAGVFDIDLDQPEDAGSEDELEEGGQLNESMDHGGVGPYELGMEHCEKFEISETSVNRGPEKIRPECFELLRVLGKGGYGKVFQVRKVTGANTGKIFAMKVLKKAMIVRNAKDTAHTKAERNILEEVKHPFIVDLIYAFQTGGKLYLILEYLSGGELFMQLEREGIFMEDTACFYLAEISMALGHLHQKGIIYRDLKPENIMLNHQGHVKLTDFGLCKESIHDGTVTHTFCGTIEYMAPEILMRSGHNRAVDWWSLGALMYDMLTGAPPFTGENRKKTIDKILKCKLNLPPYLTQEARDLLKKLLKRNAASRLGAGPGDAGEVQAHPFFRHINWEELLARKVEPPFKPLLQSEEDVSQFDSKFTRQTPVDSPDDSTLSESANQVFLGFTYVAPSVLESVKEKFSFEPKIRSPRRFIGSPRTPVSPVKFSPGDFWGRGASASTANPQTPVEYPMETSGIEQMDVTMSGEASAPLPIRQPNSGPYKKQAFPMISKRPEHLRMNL

inhibition [%] | SMILES
> 50 | CC(C)NC[C@H](Cc1ccc(Cl)cc1)C(=O)N1CCN(c2ncnc3c2[C@H](C)OC3)CC1
> 50 | CC(C)NCC(Cc1ccc(Cl)cc1)C(=O)N1CCN(c2ncnc3c2[C@H](C)SC3)CC1 (some centres not stated)

Biological target: Protein kinase C eta type (Homo sapiens) (UniProt P24723)
Experiment: Inhibition of PKCeta at 1 uM

Sequence of Protein kinase C eta type (Homo sapiens) (P24723 whole entry): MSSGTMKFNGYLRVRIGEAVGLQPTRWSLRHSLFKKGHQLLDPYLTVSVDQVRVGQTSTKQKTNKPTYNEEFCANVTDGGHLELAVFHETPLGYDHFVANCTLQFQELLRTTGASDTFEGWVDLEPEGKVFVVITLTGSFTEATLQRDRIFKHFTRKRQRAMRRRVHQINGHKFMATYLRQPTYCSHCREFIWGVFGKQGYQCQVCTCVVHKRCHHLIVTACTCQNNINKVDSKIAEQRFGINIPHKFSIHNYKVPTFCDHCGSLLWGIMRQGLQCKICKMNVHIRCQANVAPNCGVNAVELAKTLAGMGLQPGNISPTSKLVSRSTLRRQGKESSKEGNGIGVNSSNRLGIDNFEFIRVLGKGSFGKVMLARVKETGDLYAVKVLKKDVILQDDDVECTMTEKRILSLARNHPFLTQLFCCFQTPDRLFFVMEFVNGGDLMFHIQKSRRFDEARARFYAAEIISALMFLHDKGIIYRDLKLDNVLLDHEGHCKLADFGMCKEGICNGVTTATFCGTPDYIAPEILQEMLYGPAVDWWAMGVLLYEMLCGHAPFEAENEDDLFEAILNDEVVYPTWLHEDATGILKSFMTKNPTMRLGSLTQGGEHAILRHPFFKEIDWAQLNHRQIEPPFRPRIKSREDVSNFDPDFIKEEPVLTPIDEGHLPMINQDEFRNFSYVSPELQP

inhibition [%] | SMILES
> 50 | CC(C)NC[C@H](Cc1ccc(Cl)cc1)C(=O)N1CCN(c2ncnc3c2[C@H](C)OC3)CC1
> 50 | CC(C)NCC(Cc1ccc(Cl)cc1)C(=O)N1CCN(c2ncnc3c2[C@H](C)SC3)CC1 (some centres not stated)

Tested on: not listed separately
Experiment: Inhibition of PKA at 1 uM

inhibition [%] | SMILES
> 50 | CC(C)NC[C@H](Cc1ccc(Cl)cc1)C(=O)N1CCN(c2ncnc3c2[C@H](C)OC3)CC1
> 50 | CC(C)NCC(Cc1ccc(Cl)cc1)C(=O)N1CCN(c2ncnc3c2[C@H](C)SC3)CC1 (some centres not stated)
